# Earlier results in patent US20220151922A1, “Medication for Alleviating Parkinson's Symptoms and Method of Administering” (priority 2020, published 2022).
# How the values were obtained:
# [1] = tested on: bacteria, bacterial spores, and viruses; settings: versus chlorine bleach
# [2] = tested on: Pseudomonas aeruginosa biofilms
structure (smiles),measurement,setting,value
"OCl [HOCl, Hypochlorous acid]","effectiveness of killing bacteria, bacterial spores, and viruses relative to chlorine bleach",[1],100 times
same,removing Pseudomonas aeruginosa biofilms,[2],effectiveness
